Experimental data from paper PMC6661759 (BMC Chemistry, 2019).
Values after ≈ are worked out from the molar mass of the structure shown. Read-outs that look alike come from different tables or passages of the source.

Assays:
[1] = DPPH assay for antioxidant activity; settings: DPPH free radical scavenging, mean SEM
Experimental: (§1) As structure of urease from different sources has common structural features therefore urease inhibition studies were carried out on jack bean urease. Inhibition studies were carried out by indophenol technique described by Weatherburn in which measurement of concentration of ammonia released during the reaction between reagents and compounds were done.
Antioxidant nature of the synthesized derivatives was measured by the help of DPPH method. According to this method synthesized compounds were allowed to react for 0.5 h at 37 °C with stable free radical, 1, 1-diphenyl-2-picrylhydrazyl radical (DPPH). The DPPH was taken in a concentration of 300 µM. Decrease in value of absorption at 515 nm was measured after the period of incubation using a microplate reader using ascorbic acid as a standard. Molecule capable of donating proton to DPPH and cause its reduction acts as an antioxidant. Following reduction deep violet coloured DPPH solution changes to yellow depending upon the nature of antioxidant compound, which brings a measurable decrease in value of absorption at 517 nm. The proton or electron donating capacity of the derivative was estimated from the fading of deep purple colored methanolic solution of 1, 1-diphenylpicrylhydrazyl (DPPH). Incubation of mixture was done at room temperature for 30 min and measurements were done at 517 nm against blank. Calculation of percentage inhibition was done by following formula: I\%=AControl-ASample/AControl×100 where, Acontrol is control absorbance; Asample is test absorbance.

Jack Bean Urease [2] = biological target: T1, Jack Bean Urease (Canavalia ensiformis, UniProt P07374); assay: biochemical
T1 construct: purchased Sigma Aldrich
Experimental: as §1
Urease enzyme inhibition investigation studies for all synthesized compounds were done by the method developed by Weatherburn (1967) named Indophenol against Jack Bean Urease. Briefly, incubation of solution of Jack bean protein 25 μL was done at temperature of 30 °C for a period of 15 min with 55 μL of buffers solution having 100 mM urea and 5 μL of test solution in 96-well plates. 45 μL phenol solution composing phenol 1% w/v and solution of sodium nitroprusside 0.005% w/v and alkali reagent 70 μL composed of sodium hydroxide 0.5% w/v and active sodium hypochloride solution 0.1% were mixed to every well. The measurement of increase in absorption at 625 nm was done after 50 min by help of a microplate reader (Molecular Device, USA). Readings were recorded in triplicate set in a final volume of 200 μL using thiourea as standard. Each assay was performed at pH 8.2 (0.01 M K2HPO4.3H2O, 0.01 M […] and 1 mM EDTA). Calculation of Inhibition in percentage of synthesized derivatives was done by the formula given as: I\%=AControl-ASample/AControl×100 where, Acontrol is control absorbance; Asample is test absorbance.

Jack Bean Urease [3] = biological target: T1, Jack Bean Urease; assay: Enzyme kinetics, Lineweaver-Burk plot; assay type: biochemical; settings: varying urea, phosphate buffer, 1 mM EDTA, pH 8.2
Experimental: Study of inhibitory effect of chlorogenic derivatives on jack bean urease was performed to check the inhibitory potential, kinetics studies and mechanism of inhibition in phosphate buffer and 1 mM EDTA at pH 8.2. […] Competitive inhibition infers that compound C4a will probably compete for binding at the site of substrate in enzyme active site pocket.
(substrate concentration) against 1/[V] velocity. To examine the mode of inhibition compound C4a was solubilized in DMSO and further dilutions were prepared accordingly. Plot was prepared by using varying concentration of substrate (urea) in with varying concentration of inhibitor C4a. Inhibitory constant values (Ki) were determined as the interaction on the X-axis of the plots of the slope against different concentration of derivatives C4a. […] All experiments were performed in triplicate and kinetic study for interaction of enzyme with inhibitor was computed with Graphpad prism 7.0 software.

[4] = tested on: H. pylori bacterium (DSM 4867); assay: Anti-H. pylori activity, well diffusion technique; assay type: cell-based, Helicobacter pylori; settings: H. pylori DSM 4867, 2500 µg per well, 24–48 h
Experimental: (§2) Derivatives C4a, C4b and C4d which were found best in urease inhibition and antioxidant activity as well as in terms of docking score were tested further against antibacterial efficiency against Helicobacter pylori DSM 4867 using AHA as a standard and DMSO as control. […] In-vitro results concluded that compound C4a bearing nitro and chloro group at 2nd and 4th position indicated excellent antibacterial action against H. Pylori probably by interacting with the target protein efficiently and inhibited the growth of pathogenic bacteria.
(§3) Since H. Pylori is not acidophilic in nature therefore it requires urease, which produced ammonia by hydrolyzing urea present in stomach, for its survival in acidic gastric medium. Because of virulence nature of urease researchers decided to target its inhibition for anti-H. Pylori drugs. Novel synthesized derivatives were investigated against H. pylori bacterium (DSM 4867, AHA as standard) for their antibacterial activity by using Well diffusion technique. The stock solution of compounds in DMSO (1000 μg/mL) were prepared. Cell suspension was prepared from culture grown on BHI broth. The cell suspensions of all the cultures were adjusted to 1–2 × 10^5 cells/mL. Helicobacter pylori (100 µL) was inoculated by spread plate technique on agar plates (90 mm). […] MIC was determined against Helicobacter pylori by micro broth dilution technique as per NCCLS method.

[5] = tested on: Helicobacter pylori DSM 4867; assay: MIC against Helicobacter pylori by micro broth dilution technique; assay type: cell-based; settings: H. pylori DSM 4867, micro broth dilution
Experimental: as §2, §3

T1 sequence (P07374 whole entry, looked up): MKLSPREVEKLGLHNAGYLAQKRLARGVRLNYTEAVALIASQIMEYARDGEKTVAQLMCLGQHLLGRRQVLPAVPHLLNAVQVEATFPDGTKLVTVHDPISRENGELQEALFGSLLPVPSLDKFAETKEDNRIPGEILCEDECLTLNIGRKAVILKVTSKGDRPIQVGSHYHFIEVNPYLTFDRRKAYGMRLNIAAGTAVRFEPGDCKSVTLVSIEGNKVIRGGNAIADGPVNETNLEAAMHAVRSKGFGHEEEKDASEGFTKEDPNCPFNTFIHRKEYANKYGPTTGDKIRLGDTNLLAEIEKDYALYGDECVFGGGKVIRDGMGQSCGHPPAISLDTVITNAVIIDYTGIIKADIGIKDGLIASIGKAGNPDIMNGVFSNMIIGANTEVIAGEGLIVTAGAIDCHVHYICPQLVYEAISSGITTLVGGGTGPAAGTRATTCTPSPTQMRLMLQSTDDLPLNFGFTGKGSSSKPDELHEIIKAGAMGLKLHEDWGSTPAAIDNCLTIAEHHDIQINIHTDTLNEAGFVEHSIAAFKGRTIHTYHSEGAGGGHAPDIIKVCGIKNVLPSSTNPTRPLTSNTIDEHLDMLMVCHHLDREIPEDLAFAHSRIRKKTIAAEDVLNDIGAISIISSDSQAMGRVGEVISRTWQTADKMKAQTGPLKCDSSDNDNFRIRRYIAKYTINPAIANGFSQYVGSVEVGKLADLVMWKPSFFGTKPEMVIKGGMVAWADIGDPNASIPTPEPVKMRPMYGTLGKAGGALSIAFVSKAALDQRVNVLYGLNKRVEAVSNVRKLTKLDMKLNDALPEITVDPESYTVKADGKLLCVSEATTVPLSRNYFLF

Compound | IC50 [1] [µM] | IC50 (Jack Bean Urease [2]) [µM] | also measured
O=C1O[C@H]([C@@H](O)CO)C(O)=C1O [Ascorbic acid, ascorbic acid, reference compound] | 8.59 ± 0.004 | – | –
Cc1ccccc1NC(=O)[C@]1(O)CC(O)C(O)[C@H](OC(=O)/C=C/c2ccc(O)c(O)c2)C1 (stereo partly drawn) [C4g, (1R, 5S)-2,3,5-trihydroxy-5-((2-methylphenyl)carbamoyl)cyclohexyl (2E)-3-(3,4-dihydroxyphenyl)prop-2-enoate] | 7.75 ± 0.011 | 21.5 ± 0.032 | –
O=C(/C=C/c1ccc(O)c(O)c1)O[C@@H]1C[C@](O)(C(=O)Nc2cccc([N+](=O)[O-])c2)CC(O)C1O (stereo partly drawn) [C4d, (1R, 5S)-2,3,5-trihydroxy-5-((3-nitrophenyl)carbamoyl)cyclohexyl (2E)-3-(3,4-dihydroxyphenyl)prop-2-enoate] | 5.34 ± 0.007 | 13.8 ± 0.041 | –
O=C(/C=C/c1ccc(O)c(O)c1)O[C@@H]1C[C@](O)(C(=O)Nc2ccc(Cl)cc2[N+](=O)[O-])CC(O)C1O (stereo partly drawn) [C4b, (1R, 5S)-5-((4-chloro-2-nitrophenyl)carbamoyl)-2,3,5-trihydroxycyclohexyl (2E)-3-(3,4-dihydroxyphenyl)prop-2-enoate] | 6.01 ± 0.005 | 15.86 ± 0.004 | –
O=C(/C=C/c1ccc(O)c(O)c1)O[C@@H]1C[C@](O)(C(=O)Nc2ccc(Br)cc2)CC(O)C1O (stereo partly drawn) [C4c, (1R, 5S)-5-((4-bromophenyl)carbamoyl)-2,3,5-trihydroxycyclohexyl (2E)-3-(3,4-dihydroxyphenyl)prop-2-enoate] | 8.48 ± 0.026 | 22.02 ± 0.027 | –
COc1cccc(NC(=O)[C@]2(O)CC(O)C(O)[C@H](OC(=O)/C=C/c3ccc(O)c(O)c3)C2)c1 (stereo partly drawn) [C4e, (1R, 5S)-2,3,5-trihydroxy-5-((3-methoxyphenyl)carbamoyl) cyclohexyl (2E)-3-(3,4-dihydroxyphenyl)prop-2-enoate] | 6.85 ± 0.02 | 20.6 ± 0.001 | –
O=C(/C=C/c1ccc(O)c(O)c1)O[C@@H]1C[C@](O)(C(=O)Nc2ccc([N+](=O)[O-])cc2Cl)CC(O)C1O (stereo partly drawn) [C4a, (1R, 5S)-5-((2-chloro-4-nitrophenyl)carbamoyl)-2,3,5-trihydroxycyclohexyl (2E)-3-(3,4-dihydroxyphenyl)prop-2-enoate] | 5.1 ± 0.018 | 11.01 ± 0.013 | mode of inhibition (Jack Bean Urease [3]): competitive type of Inhibition; zone of inhibition [4]: 10.00 ± 0.00 mm; MIC ([5]; Helicobacter pylori, DSM4867, read-out: MIC): 500 µg/mL (≈ 983 µM)
COc1ccc(NC(=O)[C@]2(O)CC(O)C(O)[C@H](OC(=O)/C=C/c3ccc(O)c(O)c3)C2)cc1 (stereo partly drawn) [C4f, (1R, 5S)-2,3,5-trihydroxy-5-((4-methoxyphenyl)carbamoyl)cyclohexyl (2E)-3-(3,4-dihydroxyphenyl)prop-2-enoate] | 7.89 ± 0.006 | 21.83 ± 0.009 | –
CC(=O)NO [AHA, acetohydroxamic acid, reference compound] | – | – | zone of inhibition [4]: 9.00 ± 0.50 mm; MIC [5]: 1000 µg/mL (≈ 13300 µM)
O=C(/C=C/c1ccc(O)c(O)c1)O[C@@H]1C[C@](O)(C(=O)O)C[C@@H](O)[C@H]1O [CHLG, chlorogenic acid, reference compound] | – | 22.68 ± 0.006 | –
NC(N)=S [Thiourea, thiourea, reference compound] | – | – | IC50 (Jack Bean Urease [2]; jack bean urease, indophenol method, pH 8.2, mean SEM, read-out: IC50 (µM) urease inhibition): 22.8 ± 0.011 µM
O=C(/C=C/c1ccc(O)c(O)c1)O[C@@H]1C[C@](O)(C(=O)Nc2ccccc2F)CC(O)C1O (stereo partly drawn) [C4h, (1R, 5S)-5-((2-fluorophenyl)carbamoyl)-2,3,5-trihydroxycyclohexyl (2E)-3-(3,4-dihydroxyphenyl)prop-2-enoate] | 7.23 ± 0.008 | 21.24 ± 0.016 | –
